Among the data in US20240018133A1, “MODULATORS OF THE INTEGRATED STRESS PATHWAY” (Calico Life Sciences LLC, priority 2019, published 2024) are EC50 values, retold here.

The test system of the test is ATF4 luciferase reporter (human full-length ATF4 5'-UTR fused to firefly luciferase) in HEK293T cells. The test is described as follows: ATF4-Luc assay (in vitro model of VWMD): HEK293T cells carrying ATF4 luciferase reporter, tunicamycin-treated. To be noted: Homo sapiens, HEK-293T, 1 μg/mL tunicamycin, 7 hours, One Glo luminescence. The test is classed as cell-based. The procedure: In order to test exemplary compounds of the invention in a cellular context, a stable VWMD cell line was first constructed. The ATF4 reporter was prepared by fusing the human full-length ATF4 5′-UTR (NCBI Accession No. BC022088.2) in front of the firefly luciferase (FLuc) coding sequence lacking the initiator methionine as described in Sidrauski et al (eLife 2013). The construct was used to produce recombinant retroviruses using standard methods and the resulting viral supernatant was used to transduce HEK293T cells, which were then subsequently selected with puromycin to generate a stable cell line.
HEK293T cells carrying the ATF4 luciferase reporter were plated on polylysine coated 384-well plates (Greiner Bio-one) at 30,000 cells per well. Cells were treated the next day with 1 μg/mL tunicamycin and 200 nM of a compound of Formula (I) for 7 hours. Luminescence was measured using One Glo (Promega) as specified by the manufacturer. Cells were maintained in DMEM with L-glutamine supplemented with 10% heat-inactivated FBS (Gibco) and Antibiotic-Antimycotic solution (Gibco).
Table 2 below summarizes the EC50 data obtained using the ATF4-Luc assay for exemplary compounds of the invention.
A general note: In a reporter assay the amount or activity of a reporter protein is the signal.

On to `O=C(COc1ccc(Cl)c(F)c1)NC12CC(NC(=O)[C@H]3C[C@@H](O)c4cc(F)c(Cl)cc4O3)(C1)C2` (single isomer, unassigned) [Compound 206], for which the EC50 (in general, the concentration needed to bring the measured effect to its halfway point) is < 10 nM.

`O=C(NC12CCC(NC(=O)[C@H]3C[C@@H](O)c4cc(Cl)ccc4O3)(CC1)[C@@H](O)C2)c1cc(C(F)F)no1` (single isomer, unassigned) [Compound 215]: the EC50 lay within 10 to 50 nM.

Regarding `O=C(NC12CCC(NC(=O)[C@@H]3C[C@H](O)c4cc(Cl)ccc4O3)(CC1)[C@@H](O)C2)c1cc(C(F)F)no1` (single isomer, unassigned) [Compound 216], the EC50 was 250 to 500 nM.

Take `C[C@]1(O)C[C@@H](C(=O)NC23CC(NC(=O)COc4ccc(Cl)c(F)c4)(C2)C3)Oc2ccc(Cl)cc21` (single isomer, unassigned) [Compound 237]: the EC50 is < 10 nM.

For the compound `O=C(COc1ccc(Cl)c(F)c1)NC12CCC(NC(=O)[C@H]3C[C@@H](O)c4cc(Cl)ccc4O3)(CC1)[C@@H](O)C2` (single isomer, unassigned) [Compound 238], the EC50 is < 10 nM.

With `O=C(COc1ccc(Cl)c(F)c1)NC12CCC(NC(=O)[C@@H]3C[C@H](O)c4cc(Cl)ccc4O3)(CC1)[C@@H](O)C2` (single isomer, unassigned) [Compound 239], the 50% effective concentration (EC50) was < 10 nM.

Regarding `Cc1cc2c(cc1F)[C@H](O)C[C@H](C(=O)NC13CC(NC(=O)COc4ccc(Cl)c(F)c4)(C1)C3)O2` (single isomer, unassigned) [Compound 241], the EC50 was < 10 nM.

Turning to `O=C(COc1ccc(Cl)c(F)c1)NC12CC(NC(=O)[C@@H]3C[C@H](O)c4cc(Cl)c(F)cc4O3)(C1)C2` (single isomer, unassigned) [Compound 265], the EC50 is < 10 nM.

On to `C[C@@]1(O)C[C@H](C(=O)NC23CC(NC(=O)COc4ccc(Cl)c(F)c4)(C2)C3)Oc2ccc(Cl)cc21` (single isomer, unassigned) [Compound 280], for which the 50% effective concentration (EC50) is 10 to 50 nM.

Regarding `C[C@]1(O)C[C@H](C(=O)NC23CC(NC(=O)COc4ccc(Cl)c(F)c4)(C2)C3)Oc2ccc(Cl)cc21` (single isomer, unassigned) [Compound 281], the EC50 is < 10 nM.

As to `C[C@@]1(O)C[C@@H](C(=O)NC23CC(NC(=O)COc4ccc(Cl)c(F)c4)(C2)C3)Oc2ccc(Cl)cc21` (single isomer, unassigned) [Compound 288], the EC50 was < 10 nM.

Regarding `CN1CC(C(=O)NC23CCC(NC(=O)COc4ccc(Cl)c(F)c4)(CC2)[C@@H](O)C3)Oc2ccc(Cl)cc21` (stereo partly drawn) [Compound 107, 6-chloro-N-{(3S)-4-[2-(4-chloro-3-fluorophenoxy)acetamido]-3-hydroxybicyclo[2.2.2]octan-1-yl}-4-methyl-3,4-dihydro-2H-1,4-benzoxazine-2-carboxamide], the EC50 is < 10 nM.

With `CN1CC(C(=O)NC23CC(NC(=O)COc4ccc(Cl)c(F)c4)(C2)C3)Oc2ccc(Cl)cc21` (centres unmarked) [Compound 112, 6-chloro-N-{3-[2-(4-chloro-3-fluorophenoxy)acetamido]bicyclo[1.1.1]pentan-1-yl}-4-methyl-3,4-dihydro-2H-1,4-benzoxazine-2-carboxamide], the EC50 is < 10 nM.

On to `O=C(COc1ccc(Cl)c(F)c1)NC12CC(NC(=O)C3CNc4cc(Cl)ccc4O3)(C1)C2` (centres unmarked) [Compound 113, 6-chloro-N-{3-[2-(4-chloro-3-fluorophenoxy)acetamido]bicyclo[1.1.1]pentan-1-yl}-3,4-dihydro-2H-1,4-benzoxazine-2-carboxamide], for which the EC50 was < 10 nM.

For `O=C(COc1ccc(Cl)c(F)c1)NC12CC(NC(=O)C3CN(C(=O)c4ccc(S(=O)(=O)F)cc4)c4cc(Cl)ccc4O3)(C1)C2` (centres unmarked) [Compound 147, 4-[6-chloro-2-({3-[2-(4-chloro-3-fluorophenoxy)acetamido]bicyclo[1.1.1]pentan-1-yl}carbamoyl)-2,3-dihydro-4H-1,4-benzoxazine-4-carbonyl]benzene-1-sulfonyl fluoride], the EC50 lay within 500 to 2000 nM.

With `CC(C)(C)OC(=O)CN1C[C@@H](C(=O)NC23CCC(NC(=O)COc4ccc(Cl)c(F)c4)(CC2)[C@@H](O)C3)Oc2ccc(Cl)cc21` [Compound 184, tert-butyl [(2S)-6-chloro-2-({(3S)-4-[2-(4-chloro-3-fluorophenoxy)acetamido]-3-hydroxybicyclo[2.2.2]octan-1-yl}carbamoyl)-2,3-dihydro-4H-1,4-benzoxazin-4-yl]acetate], the EC50 lay in the range of 250 to 500 nM.

As for `O=C(COc1ccc(Cl)c(F)c1)NC12CC(NC(=O)C3CC(=O)c4cc(Cl)ccc4O3)(C1)C2` (centres unmarked) [Compound 186, 6-chloro-N-{3-[2-(4-chloro-3-fluorophenoxy)acetamido]bicyclo[1.1.1]pentan-1-yl}-4-oxo-3,4-dihydro-2H-1-benzopyran-2-carboxamide], the EC50 was < 10 nM.

For the compound `O=C(COc1ccc(Cl)c(F)c1)NC12CC(NC(=O)C3CC(NCCO)c4cc(Cl)ccc4O3)(C1)C2` (centres unmarked) [Compound 188, 6-chloro-N-{3-[2-(4-chloro-3-fluorophenoxy)acetamido]bicyclo[1.1.1]pentan-1-yl}-4-[(2-hydroxyethyl)amino]-3,4-dihydro-2H-1-benzopyran-2-carboxamide], the EC50 lay in the range of 10 to 50 nM.

With `COC(C)(C)CN1C[C@@H](C(=O)NC23CC(NC(=O)COc4ccc(Cl)c(F)c4)(C2)C3)Oc2ccc(Cl)cc21` [Compound 191, (2S)-6-chloro-N-{3-[2-(4-chloro-3-fluorophenoxy)acetamido]bicyclo[1.1.1]pentan-1-yl}-4-(2-methoxy-2-methylpropyl)-3,4-dihydro-2H-1,4-benzoxazine-2-carboxamide], the concentration for a half-maximal effect (EC50) lay within 500 to 2000 nM.

As for `O=C(O)CNC1CC(C(=O)NC23CC(NC(=O)COc4ccc(Cl)c(F)c4)(C2)C3)Oc2ccc(Cl)cc21` (centres unmarked) [Compound 192, {[6-chloro-2-({3-[2-(4-chloro-3-fluorophenoxy)acetamido]bicyclo[1.1.1]pentan-1-yl}carbamoyl)-3,4-dihydro-2H-1-benzopyran-4-yl]amino}acetic acid], the EC50 is 500 to 2000 nM.

With `O=C(COc1ccc(Cl)c(F)c1)NC12CC(NC(=O)[C@@H]3C[C@H](O)c4cc(Cl)ccc4O3)(C1)C2` [Compound 195, (2S,4S)-6-chloro-N-{3-[2-(4-chloro-3-fluorophenoxy)acetamido]bicyclo[1.1.1]pentan-1-yl}-4-hydroxy-3,4-dihydro-2H-1-benzopyran-2-carboxamide], the EC50 is < 10 nM.

As for `O=C(COc1ccc(Cl)c(F)c1)NC12CC(NC(=O)[C@H]3C[C@@H](O)c4cc(Cl)ccc4O3)(C1)C2` [Compound 196, (2R,4R)-6-chloro-N-{3-[2-(4-chloro-3-fluorophenoxy)acetamido]bicyclo[1.1.1]pentan-1-yl}-4-hydroxy-3,4-dihydro-2H-1-benzopyran-2-carboxamide], the EC50 was < 10 nM.

Turning to `O=C(COc1ccc(Cl)c(F)c1)NC12CC(NC(=O)[C@H]3C[C@H](O)c4cc(Cl)ccc4O3)(C1)C2` [Compound 197, (2R,4S)-6-chloro-N-{3-[2-(4-chloro-3-fluorophenoxy)acetamido]bicyclo[1.1.1]pentan-1-yl}-4-hydroxy-3,4-dihydro-2H-1-benzopyran-2-carboxamide], the EC50 was < 10 nM.

`O=C(COc1ccc(Cl)c(F)c1)NC12CC(NC(=O)[C@@H]3C[C@@H](O)c4cc(Cl)ccc4O3)(C1)C2` [Compound 198, (2S,4R)-6-chloro-N-{3-[2-(4-chloro-3-fluorophenoxy)acetamido]bicyclo[1.1.1]pentan-1-yl}-4-hydroxy-3,4-dihydro-2H-1-benzopyran-2-carboxamide]: the concentration giving a half-maximal response (EC50) is < 10 nM.

In the case of `O=C(COc1ccc(Cl)c(F)c1)NC12CCC(NC(=O)C3CC(=O)c4cc(Cl)ccc4O3)(CC1)C[C@@H]2O` (stereo partly drawn) [Compound 199C, 6-chloro-N-{(3S)-4-[2-(4-chloro-3-fluorophenoxy)acetamido]-3-hydroxybicyclo[2.2.2]octan-1-yl}-4-oxo-3,4-dihydro-2H-1-benzopyran-2-carboxamide], the EC50 was < 10 nM.

As to `O=C(COc1ccc(Cl)c(Cl)c1)NC12CC(NC(=O)[C@H]3C[C@@H](O)c4cc(F)c(F)cc4O3)(C1)C2` [Compound 207, (2R,4R)—N-{3-[2-(3,4-dichlorophenoxy)acetamido]bicyclo[1.1.1]pentan-1-yl}-6,7-difluoro-4-hydroxy-3,4-dihydro-2H-1-benzopyran-2-carboxamide], the EC50 was < 10 nM.

Consider `O=C(COc1ccc(Cl)c(Cl)c1)NC12CC(NC(=O)[C@H]3CC(=O)c4cc(F)c(F)cc4O3)(C1)C2` [Compound 207E, (2R)—N-{3-[2-(3,4-dichlorophenoxy)acetamido]bicyclo[1.1.1]pentan-1-yl}-6,7-difluoro-4-oxo-3,4-dihydro-2H-1-benzopyran-2-carboxamide], for which the EC50 was < 10 nM.

For the compound `O=C(COc1ccc(Cl)c(Cl)c1)NC12CC(NC(=O)[C@@H]3C[C@H](O)c4cc(F)c(F)cc4O3)(C1)C2` [Compound 208, (2S,4S)—N-{3-[2-(3,4-dichlorophenoxy)acetamido]bicyclo[1.1.1]pentan-1-yl}-6,7-difluoro-4-hydroxy-3,4-dihydro-2H-1-benzopyran-2-carboxamide], the EC50 is < 10 nM.

Regarding `O=C(COc1ccc(Cl)c(F)c1)NC12CC(NC(=O)C3CC(NC4(C(=O)O)CC4)c4cc(Cl)ccc4O3)(C1)C2` (centres unmarked) [Compound 210, 1-{[6-chloro-2-({3-[2-(4-chloro-3-fluorophenoxy)acetamido]bicyclo[1.1.1]pentan-1-yl}carbamoyl)-3,4-dihydro-2H-1-benzopyran-4-yl]amino}cyclopropane-1-carboxylic acid], the EC50 is 250 to 500 nM.
